Laboratory results reported in US20240342156A1, “METHODS FOR TREATING PAIN” (Xenon Pharmaceuticals Inc., priority 2019, published 2024).
Like-named read-outs stand apart in the source and are kept apart here.

Tests used:
[1] = test system: CD1 mice (acetic acid induced writhing); test: Acetic acid writhing (AAW) mouse model of visceral/inflammatory pain; type: in vivo; conditions: for EC50: Mus musculus, PK/PD correlation; for number of nociceptive events: CD1 mice, 0.4% acetic acid i.p.
Protocol: Objective: The acetic acid test was performed to assess the potential efficacy of Compound A in the acetic acid writhing (AAW) model of inflammatory pain. The AAW test was performed as described previously ([…] Bi et al., “Visceral hyperalgesia induced by forebrain-specific suppression of native Kv7/KCNQ/M-current in mice.” Mol. Pain 2011, 7:84; Gabriela F. Pavao-de-Souza et al., “Acetic acid- and phenyl-p-benzoquinone-induced overt pain-like behavior depends on spinal activation of MAP kinases, PI3K and microglia in mice.” Pharmacol. Biochem. Behav. 101 (2012) 320-328; […] Lett. 413 (2007) 159-162; Mosad A. Ghareeb et al., “HPLC-ESI-MS/MS Profiling of Polyphenolics of a Leaf Extract from Alpinia zerumbet (Zingiberaceae) and Its Anti-Inflammatory, Anti-Nociceptive, and Antipyretic Activities In Vivo.” Molecules 23 (2018) 3238; and […] et al., “Analgesic Activity of Acid-Sensing Ion Channel 3 (ASIC3) Inhibitors: Sea Anemones Peptides Ugr9-1 and APETx2 versus Low Molecular Weight Compounds.” Mar. Drugs 16 (2018), 500). Study Design: Briefly, acetic acid was injected intraperitoneally at 0.4% concentration in 6-7 week old CD1 mice. After the injection of acetic acid, animals were placed in a chamber and their subsequent writhing behavior was video recorded. A writhe is defined as contraction of abdominal muscles accompanied by elongation of the body and extension of hind limbs or rotation of the trunk. […] were counted between 5-15 min after the injection of acetic acid. Selection of Acetic Acid Dose: Based on the concentration response (0.2-0.8%) of acetic acid in CD1 mice, EC75 concentration (0.4%) was selected to produce optimal writhing response. Diclofenac was used as positive control in the acetic acid model.

[2] = Crossover study with pharmacokinetic analysis, single oral dose in healthy male subjects; type: in vivo, human; conditions: for concentration at 6 days: oral, subjects who received placebo in Period 2
Source text: The pharmacokinetics (PK), safety, and tolerability of single doses of Compound A in healthy right-handed male human subjects were investigated in a randomized, double-blind, placebo-controlled, transcranial magnetic stimulation (TMS) crossover study.
An objective of the study was to evaluate the safety, tolerability, and pharmacokinetics of single doses of Compound A in healthy male subjects.
Twenty healthy right-handed male subjects were enrolled and randomized in a blinded fashion to receive a single oral dose of 20 mg Compound A or placebo (1:1 randomization ratio) on Day 1, then were crossed over to receive a single dose of the other treatment on Day 7.
Subjects were screened within 27 days prior to entering the study on Day 1. For Period 1, subjects were admitted to the study unit and dosed on Day 1, and discharged on Day 2. For Period 2, following a washout of 6 days, the same subjects were again admitted to the study unit and dosed on Day 7, and discharged on Day 8. All subjects returned to the clinical unit for an outpatient visit on Day 14, and received a follow-up telephone call on Day 37.
Subjects were dosed in a fed state, but the timing of dosing relative to meals was changed during the study, and varied between a high fat or standard meal eaten either 2 h or 30 minutes prior to dosing, and a high fat or standard meal eaten 1 h or 2.5 h after dosing.
The PK parameters for this study were summarized in two ways. Firstly, PK parameters were calculated where possible using the PK samples collected during each 24 h sampling period for Period 1 and Period 2 separately. Secondly, PK parameters were determined using samples beyond the 24 h sampling period (i.e., from Day 7/8 and/or Day 14). For subjects who received Compound A in the first period, PK samples taken prior to placebo treatment provided additional PK timepoints at >24 h. For subjects who received Compound A in the second period, there was no >24 h PK timepoint until a Day 14 PK sample was added. […] The full PK profile data set consists of the 16 subjects for whom PK samples were taken at >24 h post-dose. For discussion of the PK parameters below, the full PK profile data set was generally used, because it allowed more accurate estimation of PK parameters.
Initially, subjects were dosed 2 hours after a high fat meal with a relatively high fat lunch provided 1 hour after dosing. After blinded review of the PK profiles in the initial 8 subjects, the fat content of the lunch was reduced in an attempt to reduce the time to Tmax. In addition, the timing of the meal relative to dose was changed from 2 hours prior, to 30 minutes prior to dose and subsequently the fat content of the breakfast was reduced. The timing and type of meal for each subject is specified in Table 8. […] As such the PK data is presented without categorization according to meal content, or relative timing of the meal.

[3] = 20 mg single oral dose, fed, Full PK Profile (N = 16)
[4] = 20 mg single oral dose, fed, Overall (N = 20)
[5] = 20 mg single oral dose, fed, Period 1 (N = 10)
[6] = 20 mg single oral dose, fed, Period 2 (N = 10)
[7] = 20 mg single oral dose, full PK data set

EC50 ([1]; read-out: EC50 (effective concentration to give a 50% reduction in nociceptive events), concentration in brain): 0.4 µM
EC50 ([1]; read-out: EC50 (effective concentration to give a 50% reduction in nociceptive events), concentration in plasma): 0.25 µM
Clast (ng/mL), Mean ± SD [2, 3]: 4.52 ± 1.82 ng/mL
Clast (ng/mL), Range [2, 3]: 1.33 to 7.67 ng/mL
Tlast (h), Mean ± SD [2, 3]: 235 ± 81.5 h
Tlast (h), Range [2, 3]: 142 to 360 h
Clast (ng/mL), Mean ± SD [2, 4]: 16.4 ± 4.69 ng/mL
Clast (ng/mL), Range [2, 4]: 7.1 to 27.8 ng/mL
Tlast (h), Mean ± SD [2, 4]: 23.8 ± 0.299 h
Tlast (h), Range [2, 4]: 23.1 to 24.3 h
Tmax (h), Median [2, 4]: 7.83 h
Tmax (h), Range [2, 4]: 1.92 to 12 h
Clast (ng/mL), Mean ± SD [2, 5]: 16.4 ± 5.61 ng/mL
Clast (ng/mL), Range [2, 5]: 10.1 to 27.8 ng/mL
Tlast (h), Mean ± SD [2, 5]: 23.8 ± 0.375 h
Tlast (h), Range [2, 5]: 23.1 to 24.3 h
Clast (ng/mL), Mean ± SD [2, 6]: 16.4 ± 3.87 ng/mL
Clast (ng/mL), Range [2, 6]: 7.1 to 21.3 ng/mL
Tlast (h), Mean ± SD [2, 6]: 23.8 ± 0.213 h
Tlast (h), Range [2, 6]: 23.5 to 24.1 h
extrapolated area (% AUCextrap), median [2, 7]: 19.9%
extrapolated area (% AUCextrap), range [2, 7]: 10.6-40.5%
concentration at 6 days ([2]; male, human, plasma, 20 mg, read-out: Compound A levels after washout between periods, mean): 0.0031 µg/mL
concentration at 6 days ([2]; male, human, plasma, 20 mg, read-out: Compound A levels after washout between periods, range): 0.0013 to 0.0068 µg/mL
concentration at 2 h ([2]; male, human, plasma, po, 20 mg, 2 h timepoint, 20 mg single oral dose, full PK profile, read-out: mean SD plasma concentration): 0.0159 ± 0.0214 µg/mL
concentration at 4 h ([2]; male, human, plasma, po, 20 mg, 4 h timepoint, 20 mg single oral dose, full PK profile, read-out: mean SD plasma concentration): 0.0302 ± 0.0211 µg/mL
concentration at 6 h ([2]; male, human, plasma, po, 20 mg, 6 h timepoint, 20 mg single oral dose, full PK profile, read-out: mean SD plasma concentration): 0.0421 ± 0.0191 µg/mL
AUC(0-inf) ([2]; male, human, plasma, 20 mg single oral dose, fed, Full PK Profile Data Set (N = 16), read-out: AUCinf (ng*h/mL), Range): 1920 to 7390 ng·h/mL
AUC(0-t) ([2]; male, human, plasma, 20 mg single oral dose, fed, Full PK Profile Data Set (N = 16), read-out: AUClast (ng*h/mL), Range): 1580 to 4400 ng·h/mL
CL/F ([2]; male, human, plasma, 20 mg single oral dose, fed, Full PK Profile Data Set (N = 16), read-out: CL/F normalized (mL/h/kg), Range): 40.3 to 136 mL/h/kg
MRT inf ([2]; male, human, plasma, 20 mg single oral dose, fed, Full PK Profile Data Set (N = 16), read-out: MRTinf (h), Range): 33 to 304 h
MRT last ([2]; male, human, plasma, 20 mg single oral dose, fed, Full PK Profile Data Set (N = 16), read-out: MRTlast (h), Range): 48.2 to 122 h
Vd/F ([2]; male, human, plasma, 20 mg single oral dose, fed, Full PK Profile Data Set (N = 16), read-out: Vz/F normalized (L/kg), Range): 6.4 to 33.8 L/kg
Tmax ([2]; male, human, plasma, 20 mg single oral dose, fed, Overall (N = 20), read-out: Tmax (h), Median): ~8 h
Compound: Cc1cc(N2CCc3cc(F)ccc3C2)cc(C)c1NC(=O)CC(C)(C)C [Compound A, N-[4-(6-fluoro-3,4-dihydro-TH-isoquinolin-2-yl)-2,6-dimethylphenyl]-3,3-dimethylbutanamide]
number of nociceptive events ([1]; Study 1, vehicle, 1, 3 and 10 mg/kg): dose-responsive decrease
number of nociceptive events ([1]; Study 2, 10 mg/kg): decrease
